# Experimental data taken from patent US20250042916A1 (ACONCAGUA BIO, INC., priority 2023, published 2025).
# pEC50: −log10 of the molar value.
# Biological target: human calcitonin receptor (CTR) and RAMP3 (AMY3) in COS-7 cells (Homo sapiens, UniProt O60896+P30988)
# Assay: Amylin Receptor cAMP Assay I
# Type: cell-based
# Conditions: values marked *: Amylin Receptor cAMP Assay I; COS-7/AMY3 cells; read-out: Amylin Receptor cAMP Stimulation Activity: EC50
# How it was run: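 COS-7 cells stably co-expressing human CTR and RAMP3 (AMY3) were stimulated with serially diluted compounds (4-fold) in DPBS with 0.5 mM IBMX and 0.1% BSA for 30 min at 37 °C, 1000 cells/well. cAMP accumulation was measured by HTRF (cAMP-d2/anti-cAMP cryptate, 1 h RT) read at 665/615 nm.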
# Chain of human calcitonin receptor (CTR) and RAMP3 (AMY3) in COS-7 cells (P30988 25-474): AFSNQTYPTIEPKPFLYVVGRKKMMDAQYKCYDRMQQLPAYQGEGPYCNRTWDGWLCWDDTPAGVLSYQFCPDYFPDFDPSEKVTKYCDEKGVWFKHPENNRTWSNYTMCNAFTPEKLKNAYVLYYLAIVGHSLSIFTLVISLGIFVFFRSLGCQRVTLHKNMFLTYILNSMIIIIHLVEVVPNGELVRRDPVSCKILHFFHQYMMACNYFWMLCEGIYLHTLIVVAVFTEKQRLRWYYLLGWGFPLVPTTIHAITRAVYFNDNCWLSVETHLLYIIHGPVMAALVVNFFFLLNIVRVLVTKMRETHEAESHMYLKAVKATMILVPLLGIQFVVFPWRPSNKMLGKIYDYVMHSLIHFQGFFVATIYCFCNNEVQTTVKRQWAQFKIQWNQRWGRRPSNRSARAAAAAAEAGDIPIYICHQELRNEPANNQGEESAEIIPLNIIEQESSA
# Chain of human calcitonin receptor (CTR) and RAMP3 (AMY3) in COS-7 cells (O60896 24-148): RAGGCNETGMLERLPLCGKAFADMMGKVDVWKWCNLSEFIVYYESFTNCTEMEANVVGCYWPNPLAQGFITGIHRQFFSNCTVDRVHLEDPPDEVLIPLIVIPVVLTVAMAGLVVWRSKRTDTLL
row,pEC50,SMILES
1,6.95,"Cc1nnc(-c2c(C3CC3c3ccc(F)cc3)nc(CC(C)C)c(C(N)=O)c2-c2ccc(C(=O)NCc3ccc(F)c(F)c3)s2)o1 (centres unmarked) [Compound 178, 4-(5-((3,4-difluorobenzyl)carbamoyl)thiophen-2-yl)-6-(2-(4-fluorophenyl)cyclopropyl)-2-isobutyl-5-(5-methyl-1,3,4-oxadiazol-2-yl)nicotinamide]"
2,< 6.00,"Cc1nnc(-c2c(CCN3CCCCC3)nc(CC(C)C)c(C(N)=O)c2-c2ccc(C(=O)NCc3ccc(F)c(F)c3)s2)o1 [Compound 179, 4-(5-((3,4-difluorobenzyl)carbamoyl)thiophen-2-yl)-2-isobutyl-5-(5-methyl-1,3,4-oxadiazol-2-yl)-6-(2-(piperidin-1-yl)ethyl)nicotinamide]"
3,6.86,"Cc1nnc(-c2c(CC3COc4ccccc4O3)nc(CC(C)C)c(C(N)=O)c2-c2ccc(C(=O)NCc3ccc(F)c(F)c3)s2)o1 (centres unmarked) [Compound 180, 4-(5-((3,4-difluorobenzyl)carbamoyl)thiophen-2-yl)-6-((2,3-dihydrobenzo[b][1,4]dioxin-2-yl)methyl)-2-isobutyl-5-(5-methyl-1,3,4-oxadiazol-2-yl)nicotinamide]"
4,5.03,Cc1nnc(-c2c(CN3Cc4ccccc4C3=O)nc(CC(C)C)c(C(N)=O)c2-c2ccc(C(=O)NCc3ccc(F)c(F)c3)s2)o1 [Compound 181]
5,4.63,Cc1nnc(-c2c(CCC(=O)N3CCCC3)nc(CC(C)C)c(C(N)=O)c2-c2ccc(C(=O)NCc3ccc(F)c(F)c3)s2)o1 [Compound 182]
6,5.72,"Cc1ccn(CCc2nc(CC(C)C)c(C(N)=O)c(-c3ccc(C(=O)NCc4ccc(F)c(F)c4)s3)c2-c2nnc(C)o2)n1 [Compound 183, 4-(5-((3,4-difluorobenzyl)carbamoyl)thiophen-2-yl)-2-isobutyl-5-(5-methyl-1,3,4-oxadiazol-2-yl)-6-(2-(3-methyl-1H-pyrazol-1-yl)ethyl)nicotinamide]"
7,5.97,"Cc1nnc(-c2c(CCc3cnn(C)c3)nc(CC(C)C)c(C(N)=O)c2-c2ccc(C(=O)NCc3ccc(F)c(F)c3)s2)o1 [Compound 184, 4-(5-((3,4-difluorobenzyl)carbamoyl)thiophen-2-yl)-2-isobutyl-5-(5-methyl-1,3,4-oxadiazol-2-yl)-6-(2-(1-methyl-1H-pyrazol-4-yl)ethyl)nicotinamide]"
8,6.29,"Cc1nnc(-c2c(CC(O)c3ccc(F)cc3)nc(CC(C)C)c(C(N)=O)c2-c2ccc(C(=O)N[C@@H]3CCc4ccccc43)s2)o1 (stereo partly drawn) [Compound 185, 4-(5-(((R)-2,3-dihydro-1H-inden-1-yl)carbamoyl)thiophen-2-yl)-6-(2-(4-fluorophenyl)-2-hydroxyethyl)-2-isobutyl-5-(5-methyl-1,3,4-oxadiazol-2-yl)nicotinamide]"
9,6.91,"COC(Cc1nc(CC(C)C)c(C(N)=O)c(-c2ccc(C(=O)NCc3ccc(F)c(F)c3)s2)c1-c1nnc(C)o1)c1ccc(F)cc1 (centres unmarked) [Compound 186, 4-(5-((3,4-difluorobenzyl)carbamoyl)thiophen-2-yl)-6-(2-(4-fluorophenyl)-2-methoxyethyl)-2-isobutyl-5-(5-methyl-1,3,4-oxadiazol-2-yl)nicotinamide]"
10,7.00,"Cc1nnc(-c2c(CC(F)c3ccc(F)cc3)nc(CC(C)C)c(C(N)=O)c2-c2ccc(C(=O)N[C@@H]3CCc4ccccc43)s2)o1 (stereo partly drawn) [Compound 187, 4-(5-(((R)-2,3-dihydro-1H-inden-1-yl)carbamoyl)thiophen-2-yl)-6-(2-fluoro-2-(4-fluorophenyl)ethyl)-2-isobutyl-5-(5-methyl-1,3,4-oxadiazol-2-yl)nicotinamide]"
11,< 6.00,"Cc1nnc(-c2c(CCC(F)F)nc(CC(C)C)c(C(N)=O)c2-c2ccc(C(=O)NCc3ccc(F)c(F)c3)s2)o1 [Compound 189, 4-(5-((3,4-difluorobenzyl)carbamoyl)thiophen-2-yl)-6-(3,3-difluoropropyl)-2-isobutyl-5-(5-methyl-1,3,4-oxadiazol-2-yl)nicotinamide]"
12,5.97,"Cc1nnc(-c2c(CC(C)c3ccc(F)cc3)nc(CC(C)C)c(C(N)=O)c2-c2ccc(C(=O)N[C@@H]3CCc4ncccc43)s2)o1 (stereo partly drawn) [Compound 191, 4-(5-(((R)-6,7-dihydro-5H-cyclopenta[b]pyridin-5-yl)carbamoyl)thiophen-2-yl)-6-(2-(4-fluorophenyl)propyl)-2-isobutyl-5-(5-methyl-1,3,4-oxadiazol-2-yl)nicotinamide]"
13,< 6.00,"Cc1nnc(-c2c(CC3CC3(F)F)nc(CC(C)C)c(C(N)=O)c2-c2ccc(C(=O)NCc3ccc(F)c(F)c3)s2)o1 (centres unmarked) [Compound 192, 4-(5-((3,4-difluorobenzyl)carbamoyl)thiophen-2-yl)-6-((2,2-difluorocyclopropyl)methyl)-2-isobutyl-5-(5-methyl-1,3,4-oxadiazol-2-yl)nicotinamide]"
14,5.45,"Cc1nnc(-c2c(CC3CC(F)(F)C3)nc(CC(C)C)c(C(N)=O)c2-c2ccc(C(=O)NCc3ccc(F)c(F)c3)s2)o1 [Compound 193, 4-(5-((3,4-difluorobenzyl)carbamoyl)thiophen-2-yl)-6-((3,3-difluorocyclobutyl)methyl)-2-isobutyl-5-(5-methyl-1,3,4-oxadiazol-2-yl)nicotinamide]"
15,5.47,"Cc1nnc(-c2c(C34CC(C(F)(F)F)(C3)C4)nc(CC(C)C)c(C(N)=O)c2-c2ccc(C(=O)NCc3ccc(F)c(F)c3)s2)o1 [Compound 194, 4-(5-((3,4-difluorobenzyl)carbamoyl)thiophen-2-yl)-2-isobutyl-5-(5-methyl-1,3,4-oxadiazol-2-yl)-6-(3-(trifluoromethyl)bicyclo[1.1.1]pentan-1-yl)nicotinamide]"
16,4.40,"Cc1ccc(CCc2nc(CC(C)C)c(C(N)=O)c(-c3ccc(C(=O)N[C@@H]4CCc5ncccc54)s3)c2-c2nnc(C)o2)nc1 [Compound 195, (R)-4-(5-((6,7-dihydro-5H-cyclopenta[b]pyridin-5-yl)carbamoyl)thiophen-2-yl)-2-isobutyl-5-(5-methyl-1,3,4-oxadiazol-2-yl)-6-(2-(5-methylpyridin-2-yl)ethyl)nicotinamide]"
17,6.55,"Cc1nnc(-c2c(CCC3CCOCC3)nc(CC(C)C)c(C(N)=O)c2-c2cc3ccnc(N[C@@H]4CCc5ncccc54)c3s2)o1 [Compound 196, (R)-4-(7-((6,7-dihydro-5H-cyclopenta[b]pyridin-5-yl)amino)thieno[2,3-c]pyridin-2-yl)-2-isobutyl-5-(5-methyl-1,3,4-oxadiazol-2-yl)-6-(2-(tetrahydro-2H-pyran-4-yl)ethyl)nicotinamide]"
18,6.64,"COc1cccc2c1CC[C@H]2Nc1nccc2cc(-c3c(C(N)=O)c(CC(C)C)nc(CCC4CCOCC4)c3-c3ncc(C)o3)sc12 [Compound 198, (R)-2-isobutyl-4-(7-((4-methoxy-2,3-dihydro-1H-inden-1-yl)amino)thieno[2,3-c]pyridin-2-yl)-5-(5-methyloxazol-2-yl)-6-(2-(tetrahydro-2H-pyran-4-yl)ethyl)nicotinamide]"
19,< 6.00,"CCc1nc(CC(C)C)c(C(N)=O)c(-c2ccc(C(=O)NCc3ccc(F)c(F)c3)cc2)c1-c1nnc(C)o1 [Compound 199, 4-(4-((3,4-difluorobenzyl)carbamoyl)phenyl)-6-ethyl-2-isobutyl-5-(5-methyl-1,3,4-oxadiazol-2-yl)nicotinamide]"
20,6.56,"Cc1nnc(-c2c(CCc3ccc(F)cc3)nc(CC(C)C)c(C(N)=O)c2-c2cc3ccnc(NCc4ccccn4)c3s2)o1 [Compound 200, 6-(4-fluorophenethyl)-2-isobutyl-5-(5-methyl-1,3,4-oxadiazol-2-yl)-4-(7-((pyridin-2-ylmethyl)amino)thieno[2,3-c]pyridin-2-yl)nicotinamide]"
21,6.42,"Cc1nnc(-c2c(CCc3ccc(F)cc3)nc(CC(C)C)c(C(N)=O)c2-c2cc3ccnc(NCc4cccnc4)c3s2)o1 [Compound 201, 6-(4-fluorophenethyl)-2-isobutyl-5-(5-methyl-1,3,4-oxadiazol-2-yl)-4-(7-((pyridin-3-ylmethyl)amino)thieno[2,3-c]pyridin-2-yl)nicotinamide]"
22,6.62,"Cc1nnc(-c2c(CCc3ccc(F)cc3)nc(CC(C)C)c(C(N)=O)c2-c2cc3ccnc(NCc4ccncc4)c3s2)o1 [Compound 202, 6-(4-fluorophenethyl)-2-isobutyl-5-(5-methyl-1,3,4-oxadiazol-2-yl)-4-(7-((pyridin-4-ylmethyl)amino)thieno[2,3-c]pyridin-2-yl)nicotinamide]"
23,7.17,"CC(C)Cc1nc(CCc2ccc(F)cc2)c(-c2ccn(C)n2)c(-c2ccc(C(=O)NCc3ccc(F)c(F)c3)s2)c1C(N)=O [Compound 204, 4-(5-((3,4-difluorobenzyl)carbamoyl)thiophen-2-yl)-6-(4-fluorophenethyl)-2-isobutyl-5-(1-methyl-1H-pyrazol-3-yl)nicotinamide]"
